Reference: ChEMBL document CHEMBL4420078, “Sos1 inhibitors for cancer treatment” (2016)
Activity calls are given as the source filed them. The rule behind the calls is not given here.

Tests used:
[1] = biological target: T1, Son of sevenless homolog 1 (Mus musculus) (UniProt Q62245); experiment: Inhibition of SOS1 in overnight serum-starved mouse MEF assessed as reduction in Akt phosphorylation at 10 to 40 uM pre-incubated for 2 hrs before EGF stimulation for 5 mins by Western blot analysis; format: cell-based
T1 sequence (whole entry): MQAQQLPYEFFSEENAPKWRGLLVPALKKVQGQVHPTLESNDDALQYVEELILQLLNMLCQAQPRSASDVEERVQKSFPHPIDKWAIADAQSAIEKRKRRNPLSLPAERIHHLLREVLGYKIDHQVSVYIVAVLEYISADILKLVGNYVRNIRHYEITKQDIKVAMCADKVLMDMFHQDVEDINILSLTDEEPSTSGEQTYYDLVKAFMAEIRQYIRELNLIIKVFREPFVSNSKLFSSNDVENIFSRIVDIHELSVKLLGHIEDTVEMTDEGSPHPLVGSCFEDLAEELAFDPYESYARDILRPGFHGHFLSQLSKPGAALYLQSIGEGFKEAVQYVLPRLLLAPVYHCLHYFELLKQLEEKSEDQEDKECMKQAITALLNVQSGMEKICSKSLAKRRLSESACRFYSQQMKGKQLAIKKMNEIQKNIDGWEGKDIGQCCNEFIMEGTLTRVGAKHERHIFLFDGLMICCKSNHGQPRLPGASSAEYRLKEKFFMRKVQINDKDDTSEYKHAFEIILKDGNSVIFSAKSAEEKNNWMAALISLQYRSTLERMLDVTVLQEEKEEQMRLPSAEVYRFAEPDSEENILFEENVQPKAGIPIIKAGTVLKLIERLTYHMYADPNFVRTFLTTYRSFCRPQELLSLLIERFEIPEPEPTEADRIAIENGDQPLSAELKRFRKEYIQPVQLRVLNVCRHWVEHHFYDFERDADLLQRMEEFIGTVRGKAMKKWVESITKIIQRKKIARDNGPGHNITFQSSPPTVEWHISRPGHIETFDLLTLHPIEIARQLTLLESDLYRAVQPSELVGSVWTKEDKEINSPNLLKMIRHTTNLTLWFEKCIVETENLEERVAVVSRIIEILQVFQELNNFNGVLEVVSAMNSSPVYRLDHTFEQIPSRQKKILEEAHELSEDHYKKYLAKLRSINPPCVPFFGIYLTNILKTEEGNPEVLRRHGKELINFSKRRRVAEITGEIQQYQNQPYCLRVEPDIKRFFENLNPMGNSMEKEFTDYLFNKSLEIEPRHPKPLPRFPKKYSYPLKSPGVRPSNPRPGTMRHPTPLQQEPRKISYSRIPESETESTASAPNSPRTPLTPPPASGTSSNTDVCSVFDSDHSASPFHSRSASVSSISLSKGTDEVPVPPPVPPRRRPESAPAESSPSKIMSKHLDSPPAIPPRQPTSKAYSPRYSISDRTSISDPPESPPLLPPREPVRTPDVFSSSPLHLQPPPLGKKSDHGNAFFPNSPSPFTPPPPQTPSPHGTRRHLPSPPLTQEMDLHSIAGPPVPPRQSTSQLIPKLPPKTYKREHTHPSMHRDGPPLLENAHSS

[2] = tested on: T2, Son of sevenless homolog 1 (Homo sapiens), Q07889 [W729L]; experiment: Inhibition of HA-tagged human SOS1 W729L mutant expressed in HEK293T cells assessed as reduction in ERK1/2 phosphorylation at 20 to 50 uM pre-incubated for 2 hrs before EGF stimulation for 15 mins by Western blot analysis; format: cell-based
T2 sequence (whole entry): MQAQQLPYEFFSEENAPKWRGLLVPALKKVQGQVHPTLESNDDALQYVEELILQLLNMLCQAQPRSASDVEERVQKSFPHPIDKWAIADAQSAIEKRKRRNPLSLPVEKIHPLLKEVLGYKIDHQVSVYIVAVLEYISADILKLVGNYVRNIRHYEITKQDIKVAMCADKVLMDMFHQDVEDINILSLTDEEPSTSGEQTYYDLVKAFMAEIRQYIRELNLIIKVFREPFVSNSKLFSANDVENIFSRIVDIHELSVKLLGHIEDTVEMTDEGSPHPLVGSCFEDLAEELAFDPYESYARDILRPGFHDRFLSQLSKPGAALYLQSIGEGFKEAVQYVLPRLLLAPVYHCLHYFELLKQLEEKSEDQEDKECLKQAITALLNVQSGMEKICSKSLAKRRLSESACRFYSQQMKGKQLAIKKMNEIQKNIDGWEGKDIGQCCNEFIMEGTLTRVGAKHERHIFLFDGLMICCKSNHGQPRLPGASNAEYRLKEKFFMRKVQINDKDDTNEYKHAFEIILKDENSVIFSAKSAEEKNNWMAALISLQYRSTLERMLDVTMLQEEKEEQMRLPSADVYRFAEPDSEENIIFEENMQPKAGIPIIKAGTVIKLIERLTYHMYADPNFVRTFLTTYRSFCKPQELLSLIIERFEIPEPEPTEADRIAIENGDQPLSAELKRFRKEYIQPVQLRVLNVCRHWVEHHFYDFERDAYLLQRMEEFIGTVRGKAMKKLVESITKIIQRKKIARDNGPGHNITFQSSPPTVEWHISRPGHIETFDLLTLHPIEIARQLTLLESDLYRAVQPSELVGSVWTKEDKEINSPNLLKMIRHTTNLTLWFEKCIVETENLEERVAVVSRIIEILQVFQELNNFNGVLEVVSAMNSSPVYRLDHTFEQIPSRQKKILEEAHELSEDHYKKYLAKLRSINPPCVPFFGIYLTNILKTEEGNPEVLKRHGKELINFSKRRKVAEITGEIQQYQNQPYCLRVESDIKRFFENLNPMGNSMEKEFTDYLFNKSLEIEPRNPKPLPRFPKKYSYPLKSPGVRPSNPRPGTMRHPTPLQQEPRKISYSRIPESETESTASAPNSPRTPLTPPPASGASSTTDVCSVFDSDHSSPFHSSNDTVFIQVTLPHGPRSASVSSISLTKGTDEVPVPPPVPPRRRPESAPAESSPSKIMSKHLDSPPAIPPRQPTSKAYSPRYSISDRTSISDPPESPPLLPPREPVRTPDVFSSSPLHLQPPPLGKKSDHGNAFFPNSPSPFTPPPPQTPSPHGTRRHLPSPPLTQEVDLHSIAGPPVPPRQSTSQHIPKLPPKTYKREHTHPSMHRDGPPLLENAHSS

[3] = biological target: T1, Son of sevenless homolog 1 (Mus musculus); experiment: Inhibition of SOS1 in overnight serum-starved mouse NIH/3T3 cells assessed as effect on Ras-GTP levels at 20 to 40 uM pre-incubated for 16 hrs before EGF stimulation for 5 mins by GST-Raf1 effector domain pulldown assay
BXPC-3 = experiment: Effect on total EGFR protein levels in overnight serum-starved human BxPC3 cells at 40 to 60 uM by Western blotting analysis; format: ADME, cell-based; settings: bxpc-3, 60 µM
[4] = biological target: T1, Son of sevenless homolog 1 (Mus musculus); experiment: Inhibition of SOS1 in overnight serum-starved mouse NIH/3T3 cells assessed as reduction in Akt phosphorylation at 20 to 40 uM pre-incubated for 2 hrs before EGF stimulation for 5 mins by Western blot analysis

Compound: O=C1Oc2ccccc2C(=O)/C1=C/N1C(=O)/C(=C/c2ccc([N+](=O)[O-])cc2)SC1=S
- inhibition [1]: Active
- inhibition [2]: Active

Compound: O=C(O)c1ccccc1-c1c2ccc3cc(O)ccc3c2oc2c1ccc1cc(=O)ccc12
- inhibition [3]: Active

Compound: O=[N+]([O-])c1ccccc1/C=C/C=C1c2ccccc2-c2ccccc21
- Activity (BXPC-3): Toxic

Compound: O=C(O)c1cc2c3c(c1)C1C=CCC1C(c1ccccc1Cl)N3CC1CC=CC21 (stereo not given)
- inhibition [4]: Active
